Reference: the supplement of paper PMC8882468

Tests used:
Assay in all cases: CTG-3D luminescence at 96 h relative to day-0 seeding control (ratio to day 0); higher = more growth / less cytotoxicity; PDxO 3D drug screen, 96 h, CTG-3D normalised to day-0 seeding control.
HCI-001 = system: HCI-001 (organoid from a triple-negative breast cancer xenograft)
HCI-003.E2 = system: HCI-003.E2 (organoid from an ER-positive breast cancer xenograft)
HCI-010 = system: HCI-010 (organoid from a breast cancer xenograft)
HCI-016 = system: HCI-016 (organoid from a triple-negative breast cancer xenograft)

NC(=O)Nc1cc(-c2cccc(F)c2)sc1C(=O)N[C@H]1CCCNC1 [AZD7762]
CTG-3D luminescence at 96 h
Conditions	12.5 pM	0.00025 µM	0.005 µM	0.1 µM	1 µM	10 µM	100 µM	625 fM
HCI-001, days in culture: 240	1.67	0.879	1.07	1	0.663	0.189	0.00603	1.14
HCI-001, days in culture: 260	1.93	1.02	1.44	0.935	0.787	0.243	0.00469	1.07
HCI-001, days in culture: 269	1.68	1.84	1.41	1.25	0.48	0.388	-0.00671	1.59
HCI-001, days in culture: 327	1.38	1.77	1.85	1.38	0.567	0.168	0.00741	1.6
HCI-001, days in culture: 346	1.38	1.49	1.23	0.907	0.392	0.184	0.0108	1.21
HCI-001, days in culture: 364	1.53	1.16	1.51	1.03	0.466	0.201	0.00492	1.71
HCI-010, days in culture: 52	2.15	2.42	2.03	0.844	0.355	0.327	-0.0157	2.28
HCI-010, days in culture: 65	1.69	1.62	1.42	0.742	0.378	0.219	0.00203	1.65
HCI-010, days in culture: 103	3.16	3.35	3.16	1.23	0.651	0.537	0.0021	3.22
HCI-016, days in culture: 153	3.14	1.64	2.54	0.266	0.0727	0.081	0.000259	2.62
HCI-016, days in culture: 172	2.35	1.91	1.78	0.194	0.0623	0.0531	-3.08e-05	1.66
HCI-016, days in culture: 190	1.53	1.19	1.71	0.131	0.0574	0.0481	0.00171	1.32
HCI-016, days in culture: 199	1.5	1.46	1.56	0.129	0.0407	0.0245	-0.00099	1.57

HCI-003.E2
Conditions	CTG-3D luminescence at 96 h
12.5 pM	2.21
0.00025 µM	2.59
0.005 µM	1.96
0.1 µM	1.78
1 µM	1.12
10 µM	0.769
100 µM	0.0016
625 fM	2.21

Cc1cc(Nc2ncc(Cl)c(Nc3ccccc3S(=O)(=O)C(C)C)n2)c(OC(C)C)cc1C1CCNCC1 [ceritinib]
CTG-3D luminescence at 96 h
Conditions	12.5 pM	0.00025 µM	0.005 µM	0.1 µM	1 µM	10 µM	100 µM	625 fM
HCI-001, days in culture: 240	1.82	1.14	1.07	1.15	0.858	0.121	-0.00201	1.26
HCI-001, days in culture: 260	2.25	1.05	1.67	1.28	1.21	0.018	-0.00298	1.55
HCI-001, days in culture: 269	1.92	1.77	1.43	1.82	1.23	-0.0266	-0.0412	1.9
HCI-001, days in culture: 327	1.58	1.14	1.9	1.78	1.24	0.164	-0.00344	1.92
HCI-001, days in culture: 346	1.59	1.27	1.16	1.24	1.19	0.45	-0.00215	1.39
HCI-001, days in culture: 364	1.52	1.11	1.4	0.954	1.13	0.315	-0.00387	1.85
HCI-010, days in culture: 52	2.34	2.15	2.46	2.54	2.64	-0.0117	-0.0342	2.26
HCI-010, days in culture: 65	1.61	1.61	1.79	1.94	1.83	0.00782	-0.00536	1.74
HCI-010, days in culture: 103	3.59	3.48	3.35	3.68	3.99	0.0149	-0.0118	3.09
HCI-016, days in culture: 153	3.1	1.87	2.13	1.93	2.1	0.0113	-0.00664	2.35
HCI-016, days in culture: 172	2.65	2.04	1.89	1.31	1.46	0.00857	-0.00483	2.1
HCI-016, days in culture: 190	1.83	1.16	1.62	1.01	1.42	0.0979	-0.0035	1.25
HCI-016, days in culture: 199	1.55	1.22	1.18	1.49	1.36	0.0047	-0.00558	1.96

HCI-003.E2
Conditions	CTG-3D luminescence at 96 h
12.5 pM	2.16
0.00025 µM	2.04
0.005 µM	1.82
0.1 µM	2.06
1 µM	2.05
10 µM	0.388
100 µM	0.0194
625 fM	2.21

CC[C@H](NC(=O)[C@H](C)NC)C(=O)N1C[C@@H](O)C[C@H]1Cc1c(-c2[nH]c3cc(F)ccc3c2C[C@@H]2C[C@H](O)CN2C(=O)[C@H](CC)NC(=O)[C@H](C)NC)[nH]c2cc(F)ccc12 [birinapant]
CTG-3D luminescence at 96 h
Conditions	12.5 pM	0.00025 µM	0.005 µM	0.1 µM	1 µM	10 µM	100 µM	625 fM
HCI-001, days in culture: 240	1.73	1.11	0.766	1.19	1.35	0.911	0.0991	1.19
HCI-001, days in culture: 260	2.4	0.757	1.95	1.48	1.34	1.44	0.312	1.51
HCI-001, days in culture: 269	1.5	1.67	1.54	1.87	1.68	2.3	-0.0177	1.65
HCI-001, days in culture: 327	1.48	1.44	1.63	1.67	1.34	1.26	0.695	1.57
HCI-001, days in culture: 346	1.48	1.48	1.12	1.08	1.35	1.42	1.37	1.14
HCI-001, days in culture: 364	1.38	1.05	1.4	1.27	1.07	1.32	1.04	1.5
HCI-010, days in culture: 52	2.04	2.47	2.12	2.26	1.6	1.52	1.05	2.18
HCI-010, days in culture: 65	1.7	1.59	1.72	1.47	1.43	1.23	0.618	1.66
HCI-010, days in culture: 103	3.3	3.66	3.43	2.74	2.62	2.1	0.973	2.9
HCI-016, days in culture: 153	2.99	2.23	2.64	2.39	2.94	2.86	0.41	2.37
HCI-016, days in culture: 172	2.25	1.67	1.82	1.23	1.56	1.24	0.122	1.58
HCI-016, days in culture: 190	1.66	1.27	1.52	1.09	1.38	1.36	0.309	0.99
HCI-016, days in culture: 199	1.54	1.36	1.44	1.52	1.54	1.23	0.204	1.7

HCI-003.E2
Conditions	CTG-3D luminescence at 96 h
12.5 pM	2.21
0.00025 µM	2.35
0.005 µM	2.12
0.1 µM	2.07
1 µM	1.98
10 µM	2.07
100 µM	1.08
625 fM	2.08
